# Test results as given in patent publication US7897588B2, “Agents and methods for enhancing bone formation” (The Regents of the University of California, priority 2003, dated 2011).
# Tests used:
# adipocyte P2 gene (aP2) = assay: Northern blot for adipocyte P2 gene in troglitazone-treated M2 cells; assay type: cell-based, mouse; conditions: 10 μM Tro, 10 μM 20S, 10 days
# Description: (§1) RNA isolation and Northern blot analysis—Following treatment of cells under appropriate experimental conditions, total RNA was isolated using the RNA isolation kit from Stratagene (La Jolla, Calif., U.S.A.). Total RNA ([…]) was run on a 1% agarose/formaldehyde gel and transferred to Duralon-UV membranes (Strategene, Calif., U.S.A.) and cross-linked with UV light. The membranes were hybridized overnight at 60 degree C. with ^32P-labeled mouse osteocalcin cDNA probe, mouse lipoprotein lipase (LPL), mouse adipocyte protein 2 (aP2) PCR-generated probes, human 28S or 18S rRNA probes obtained from Geneka Biotechnology (Montreal, Quebec, Canada) and Maxim Biotech (San Francisco, Calif., U.S.A.), respectively. […] The extent of gene induction was determined by densitometry.
# (§2) Test 2: (A) M2 cells at confluence were treated in RPMI containing 10% FBS with control vehicle or 10 μM troglitazone (Tro) in the absence or presence of 10 μM 20S or 22S oxysterols. After 10 days, adipocytes were visualized by oil Red O staining and quantified by light microscopy, shown in (B). […] After 10 days, total RNA was isolated and analyzed for lipoprotein lipase (LPL), adipocyte P2 gene (aP2) or 18S rRNA expression by Northern blotting as described (Ref). […]
# lipoprotein lipase (LPL) = assay: Northern blot for lipoprotein lipase in troglitazone-treated M2 cells; assay type: cell-based, mouse; conditions: 10 μM Tro, 10 μM 20S, 10 days
# Description: as §1, §2
compound,measurement,setting,value
"CC(C)CCC[C@](C)(O)[C@H]1CC[C@H]2[C@@H]3CC=C4C[C@@H](O)CC[C@]4(C)[C@H]3CC[C@@]21C [20S, 20(S)-hydroxycholesterol]",expression of adipocyte P2 gene (aP2),adipocyte P2 gene (aP2),inhibition
same,expression of lipoprotein lipase (LPL),lipoprotein lipase (LPL),inhibition
